The target of one assay is T1, Human Factor XIIa (Homo sapiens, UniProt P00748).
T1 construct: Human Factor XIIa (Enzyme Research Laboratories) was incubated; purchased Enzyme Research Laboratories
T1 sequence (P00748 373-615 limits assumed): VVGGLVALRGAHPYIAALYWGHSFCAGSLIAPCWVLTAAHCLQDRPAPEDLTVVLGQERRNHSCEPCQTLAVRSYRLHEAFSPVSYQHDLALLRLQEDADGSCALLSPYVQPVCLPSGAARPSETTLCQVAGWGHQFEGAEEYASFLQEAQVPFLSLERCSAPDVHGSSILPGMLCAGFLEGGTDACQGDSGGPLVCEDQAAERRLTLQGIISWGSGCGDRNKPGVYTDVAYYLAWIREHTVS
T1 sequence (P00748 20-372 partner limits assumed): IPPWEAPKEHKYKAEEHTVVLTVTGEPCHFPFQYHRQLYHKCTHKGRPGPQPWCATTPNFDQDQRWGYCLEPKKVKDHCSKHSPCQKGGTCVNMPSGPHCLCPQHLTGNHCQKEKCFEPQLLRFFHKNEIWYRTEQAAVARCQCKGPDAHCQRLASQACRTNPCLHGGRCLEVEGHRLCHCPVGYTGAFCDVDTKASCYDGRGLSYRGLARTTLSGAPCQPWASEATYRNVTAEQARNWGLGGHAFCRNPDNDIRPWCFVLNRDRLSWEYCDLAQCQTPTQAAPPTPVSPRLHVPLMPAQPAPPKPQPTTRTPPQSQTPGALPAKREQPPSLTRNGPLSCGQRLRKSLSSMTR
Description: Determination of FXIIa inhibitory activity in vitro (fluorogenic substrate H-DPro-Phe-Arg-AFC). The assay is classed as biochemical. To be noted: 25° C., residual enzyme activity (initial rate).

In the next assay the target is T2, Human FXIa (Homo sapiens, UniProt P03951).
T2 construct: Human FXIa (Enzyme Research Laboratories) was incubated; purchased Enzyme Research Laboratories
T2 sequence (P03951 388-625 limits assumed): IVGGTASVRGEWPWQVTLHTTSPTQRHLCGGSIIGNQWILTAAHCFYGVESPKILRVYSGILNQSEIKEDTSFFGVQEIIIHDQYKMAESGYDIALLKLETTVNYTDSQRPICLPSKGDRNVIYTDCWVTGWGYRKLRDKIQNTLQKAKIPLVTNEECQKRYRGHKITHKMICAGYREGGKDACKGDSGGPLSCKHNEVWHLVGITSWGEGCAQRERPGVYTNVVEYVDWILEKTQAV
T2 sequence (P03951 19-387 partner limits assumed): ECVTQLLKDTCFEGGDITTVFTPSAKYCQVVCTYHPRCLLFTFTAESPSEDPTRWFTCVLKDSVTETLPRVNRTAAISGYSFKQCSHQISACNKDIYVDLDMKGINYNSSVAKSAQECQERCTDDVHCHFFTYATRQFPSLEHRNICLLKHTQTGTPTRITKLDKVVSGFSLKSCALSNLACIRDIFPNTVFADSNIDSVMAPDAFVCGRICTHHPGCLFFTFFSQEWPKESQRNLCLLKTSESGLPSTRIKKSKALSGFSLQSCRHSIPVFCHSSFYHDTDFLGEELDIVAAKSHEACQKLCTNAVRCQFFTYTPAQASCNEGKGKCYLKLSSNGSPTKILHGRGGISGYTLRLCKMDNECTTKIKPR
Description: Determination of FXIa inhibitory activity in vitro (fluorogenic substrate Z-Gly-Pro-Arg-AFC). The assay is classed as biochemical. To be noted: selectivity, 25° C., residual enzyme activity (initial rate).

Bounds are passed on as bounds.

The values that follow come from patent US20220289727A1, “ENZYME INHIBITORS” (KALVISTA PHARMACEUTICALS LIMITED, priority 2019, published 2022).

One may read the IC50 as the concentration that gives 50% inhibition.

For `Cc1cc(C(=O)NCc2ccc3c(N)nccc3c2)sc1CN1CCN(c2cnn(C)c2)CC1` [Example 5.28], the IC50 on Human Factor XIIa is 10 to 40 µM; against Human FXIa, more than 40 µM.

In the case of `Cc1cc(C(=O)NCc2ccc3c(N)nccc3c2)sc1CN1CCN(c2cc[nH]c(=O)c2)CC1` [Example 5.29], the IC50 is 10 to 40 µM on Human Factor XIIa and 38.5 µM on Human FXIa.

Turning to `CNS(=O)(=O)c1sc(C(=O)NCc2ccc3c(N)nccc3c2)cc1Br` [Example 25.07], the values for the IC50 at Human Factor XIIa and against Human FXIa were 1 to 3 µM and more than 40 µM, respectively.

Consider `Nc1nccc2cc(CNC(=O)c3cc(Cl)c(Cc4ccccc4)s3)ccc12` [Example 25.08], for which the concentration for half-maximal inhibition (IC50) was 10 to 40 µM at Human Factor XIIa and more than 40 µM against Human FXIa.

Consider `CN1CCC(c2ccc(C(=O)NCc3ccc4c(N)nccc4c3)s2)CC1` [Example 25.09], for which the IC50 against Human Factor XIIa is 10 to 40 µM; at Human FXIa, more than 40 µM.

Regarding `CN1CCC(Cc2sc(C(=O)NCc3ccc4c(N)nccc4c3)cc2Cl)CC1` [Example 25.10], the IC50 against Human Factor XIIa was 3 to 10 µM; against Human FXIa it was more than 40 µM.

For the molecule `Cc1cc(CN)cc(C)c1CNC(=O)c1cc(Cl)c(C)s1` [Example 25.102, N-(4-(Aminomethyl)-2,6-dimethylbenzyl)-4-chloro-5-methylthiophene-2-carboxamide], the IC50 against Human Factor XIIa is 3 to 10 µM; on Human FXIa, more than 40 µM.

In the case of `CN1CCC(Cn2c(C(=O)NCc3ccc4c(N)nccc4c3)cc3ccccc32)CC1` [Example 25.201], the values for the IC50 on Human Factor XIIa and on Human FXIa were 3 to 10 µM and more than 40 µM, respectively.

Turning to `CCN1CCC(Cn2c(C(=O)NCc3ccc4c(N)nccc4c3)nc3ccccc32)CC1` [Example 25.202], the IC50 at Human Factor XIIa was 1 to 3 µM; at Human FXIa it was more than 40 µM.

Take `Nc1nccc2cc(CNC(=O)c3cc4c(Cl)cccc4s3)ccc12` [Example 25.203, N-((1-Aminoisoquinolin-6-yl)methyl)-4-chlorobenzo[b]thiophene-2-carboxamide]: the IC50 against Human Factor XIIa was 1 to 3 µM; at Human FXIa, more than 40 µM.

On to `Nc1nccc2cc(CNC(=O)c3cc4c(Cl)cccc4[nH]3)ccc12` [Example 25.207], for which the IC50 against Human Factor XIIa is 1 to 3 µM; at Human FXIa, more than 40 µM.

As for `CN1CCC(CNc2cnn(C)c2C(=O)NCc2ccc3c(N)nccc3c2)CC1` [Example 26.01], the IC50 against Human Factor XIIa was 3 to 10 µM; at Human FXIa, more than 40 µM.

For `Cc1n[nH]c(C(=O)NCc2ccc3c(N)nccc3c2)c1NCC1CCN(C)CC1` [Example 26.02], the IC50 was 10 to 40 µM on Human Factor XIIa and more than 40 µM on Human FXIa.

As for `Cc1cc(OCC2CCN(C)CC2)c(C(=O)NCc2ccc3c(N)nccc3c2)s1` [Example 26.04], the IC50 against Human Factor XIIa was 10 to 40 µM; against Human FXIa, more than 40 µM.

On to `Cc1cc(NCC2CCN(C)CC2)c(C(=O)NCc2ccc3c(N)nccc3c2)s1` [Example 26.05, N-((1-Aminoisoquinolin-6-yl)methyl)-5-methyl-3-(((1-methylpiperidin-4-yl)methyl)amino) thiophene-2-carboxamide], for which the IC50 was 1 to 3 µM against Human Factor XIIa and more than 40 µM against Human FXIa.

For `Cc1csc(C(=O)NCc2ccc3c(N)nccc3c2)c1NC(=O)C1CCN(C)CC1` [Example 26.07], the IC50 against Human Factor XIIa is 10 to 40 µM; against Human FXIa, more than 40 µM.

`Cc1c(Cl)sc(C(=O)NCc2ccc3c(N)nccc3c2)c1NCC1CCN(C)CC1` [Example 26.09]: the IC50 against Human Factor XIIa is 1 to 3 µM; against Human FXIa, more than 40 µM.

Consider `Cc1sc(C(=O)NCc2ccc3c(N)nccc3c2)c(NCC2CCN(C)CC2)c1Cl` [Example 26.10, N-((1-Aminoisoquinolin-6-yl)methyl)-4-chloro-5-methyl-3-(((1-methylpiperidin-4-yl)methyl)amino) thiophene-2-carboxamide], for which the figures for the IC50 against Human Factor XIIa and at Human FXIa were 1 to 3 µM and more than 40 µM, respectively.

Take `CC(C)(C)OC(=O)N1CCC(Cn2nc(Cl)cc2C(=O)NCc2ccc3c(N)nccc3c2)CC1` [Example 35.01]: the IC50 on Human Factor XIIa was 10 to 40 µM; against Human FXIa it was more than 40 µM.

With `Nc1nccc2cc(CNC(=O)c3cc(Cl)nn3CC3CCNCC3)ccc12` [Example 35.02], the IC50 was 3 to 10 µM at Human Factor XIIa and more than 40 µM on Human FXIa.

As to `CCN1CCC(Cn2nc(Cl)cc2C(=O)NCc2ccc3c(N)nccc3c2)CC1` [Example 35.03], the 50% inhibitory concentration (IC50) against Human Factor XIIa was 3 to 10 µM; against Human FXIa, more than 40 µM.

Consider `CN1CCC(CCn2nc(Cl)cc2C(=O)NCc2ccc3c(N)nccc3c2)CC1` [Example 35.04, N-((1-Aminoisoquinolin-6-yl)methyl)-3-chloro-1-(2-(1-methylpiperidin-4-yl)ethyl)-1H-pyrazole-5-carboxamide], for which the IC50 is less than 1 µM against Human Factor XIIa and more than 40 µM against Human FXIa.

In the case of `Nc1nccc2cc(CNC(=O)c3cc(C4CC4)nn3CC3CCN(c4ccncc4)CC3)ccc12` [Example 35.05], the IC50 against Human Factor XIIa was 3 to 10 µM; on Human FXIa, 31.7 µM.

Take `Cc1cc(C(=O)NCc2ccc3c(N)nccc3c2)n(CC2CCN(c3ccncc3)CC2)n1` [Example 35.06]: the IC50 against Human Factor XIIa was 10 to 40 µM; on Human FXIa, more than 40 µM.

Regarding `CN1CCC(CCn2nccc2C(=O)NCc2ccc3c(N)nccc3c2)CC1` [Example 35.07], the results for the half-inhibitory concentration (IC50) on Human Factor XIIa and against Human FXIa were 1 to 3 µM and more than 40 µM, respectively.

In the case of `CCn1c(C(=O)NCc2ccc3c(N)nccc3c2)cc(C)c1CN1CCN(c2ccncc2)CC1` [Example 51.02, N-[(1-Amino-6-isoquinolyl)methyl]-1-ethyl-4-methyl-5-[[4-(4-pyridyl)piperazin-1-yl]methyl]pyrrole-2-carboxamide], the IC50 at Human Factor XIIa was 10 to 40 µM; against Human FXIa it was 12.4 µM.

Consider `CCc1cc(C(=O)NCc2ccc3c(N)nccc3c2)sc1CN1CCN(c2ccncc2)CC1` [Example 51.03], for which the concentration for half-maximal inhibition (IC50) against Human Factor XIIa is 3 to 10 µM; against Human FXIa it was 20.5 µM.

With `Cc1cc(C(=O)NCc2ccc3c(N)nccc3c2)nn1CC1CCN(c2ccncc2)CC1` [Example 51.04], the IC50 was 3 to 10 µM against Human Factor XIIa and more than 40 µM on Human FXIa.

Take `CN1CCC(CCn2nc(C(=O)NCc3ccc4c(N)nccc4c3)cc2Cl)CC1` [Example 51.05, N-((1-Aminoisoquinolin-6-yl)methyl)-5-chloro-1-(2-(1-methylpiperidin-4-yl)ethyl)-1H-pyrazole-3-carboxamide]: the results for the concentration for half-maximal inhibition (IC50) against Human Factor XIIa and against Human FXIa were less than 1 µM and more than 40 µM, respectively.

Consider `COCc1c(C(=O)NCc2cnc3[nH]cc(Cl)c3c2)cnn1Cc1cc2c(cc1F)CCN(C)C2` [Example 69.01, N-((3-Chloro-1H-pyrrolo[2,3-b]pyridin-5-yl)methyl)-1-((6-fluoro-2-methyl-1,2,3,4-tetrahydroisoquinolin-7-yl)methyl)-5-(methoxymethyl)-1H-pyrazole-4-carboxamide], for which the concentration for half-maximal inhibition (IC50) against Human Factor XIIa was 1 to 3 µM; against Human FXIa, more than 40 µM.

Consider `CN1CCC(CNc2nccc3c2C(=O)N(Cc2ccc4c(N)nccc4c2)C3)CC1` [Example 82.01, 2-((1-Aminoisoquinolin-6-yl)methyl)-4-(((1-methylpiperidin-4-yl)methyl)amino)-1,2-dihydro-3H-pyrrolo[3,4-c]pyridin-3-one], for which the IC50 on Human Factor XIIa was 10 to 40 µM; at Human FXIa it was more than 40 µM.
